For 19 compounds, IC50 results are on record in patent publication US20260015358A1, “BICYCLIC DERIVATIVES, COMPOSITIONS AND USES THEREOF” (Danatlas Pharmaceuticals Co., Ltd., priority 2023, published 2026).

Assay [1] concerns the target T1, WRN [UniPro: Q14191 (WRN_HUMAN), N500-C946] (Homo sapiens (Human), UniProt Q14191). In words: WRN ATPase assay (ADP-Glo). To be noted: WRN enzymatic activity assay. It is filed as biochemical. On the technique in general: ADP-Glo turns the ADP formed in a reaction into a luminescent signal.
Assay [2] deals with T1, WRN [UniPro: Q14191 (WRN_HUMAN), N500-C946]. Briefly: WRN unwinding assay (FORKF DNA, fluorescence). It counts as biochemical. To be noted: Table 14.

Where only a bound is given, the exact number is not on record here.

T1 sequence (Q14191 500-946): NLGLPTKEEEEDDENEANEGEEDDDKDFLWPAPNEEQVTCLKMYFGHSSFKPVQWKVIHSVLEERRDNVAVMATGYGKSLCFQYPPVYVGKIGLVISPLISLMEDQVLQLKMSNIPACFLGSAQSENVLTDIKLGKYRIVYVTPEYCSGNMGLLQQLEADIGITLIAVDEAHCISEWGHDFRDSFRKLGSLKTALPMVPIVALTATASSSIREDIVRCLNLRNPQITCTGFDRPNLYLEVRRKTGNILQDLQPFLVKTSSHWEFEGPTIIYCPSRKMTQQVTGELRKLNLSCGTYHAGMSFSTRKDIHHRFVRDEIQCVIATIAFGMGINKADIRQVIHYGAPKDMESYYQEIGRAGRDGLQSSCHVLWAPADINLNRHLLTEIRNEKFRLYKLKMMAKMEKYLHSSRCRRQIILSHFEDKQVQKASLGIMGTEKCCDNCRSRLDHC

Usually IC50 stands for the point on the concentration scale where inhibition reaches its midpoint. Lower therefore signals greater potency. Regarding `CCc1c(N2CCN(C(=O)CNC(=O)c3ccccc3)CC2)c(=O)n2nc(-c3cnc4c(c3)CCCO4)nc2n1CC(=O)Nc1ccc(C(F)(F)F)cc1Cl` [Example 236, N-(2-(4-(4-(2-((2-Chloro-4-(trifluoromethyl)phenyl)amino)-2-oxoethyl)-2-(3,4-dihydro-2H-pyrano[2,3-b]pyridin-6-yl)-5-ethyl-7-oxo-4,7-dihydro-[1,2,4]triazolo[1,5-a]pyrimidin-6-yl)piperazin-1-yl)-2-oxoethyl)benzamide], the IC50 in assay [1] and in assay [2] was 100 to 1000 nM throughout.

With `CCc1c(N2CCN(C(=O)CNC(=O)c3ccccc3)CC2)c(=O)n2nc(C(C)(C)C)nc2n1CC(=O)Nc1ccc(C(F)(F)F)cc1Cl` [Example 237, N-(2-(4-(2-(Tert-butyl)-4-(2-((2-chloro-4-(trifluoromethyl)phenyl)amino)-2-oxoethyl)-5-ethyl-7-oxo-4,7-dihydro-[1,2,4]triazolo[1,5-a]pyrimidin-6-yl)piperazin-1-yl)-2-oxoethyl)benzamide], the IC50 in assay [1] and in assay [2] was 100 to 1000 nM each time.

Consider `CCc1c(N2CCN(C(=O)CNC(=O)c3ccccc3)CC2)c(=O)n2nc(C3CC3)nc2n1CC(=O)Nc1ccc(C(F)(F)F)cc1Cl` [Example 238, N-(2-(4-(4-(2-((2-Chloro-4-(trifluoromethyl)phenyl)amino)-2-oxoethyl)-2-cyclopropyl-5-ethyl-7-oxo-4,7-dihydro-[1,2,4]triazolo[1,5-a]pyrimidin-6-yl)piperazin-1-yl)-2-oxoethyl)benzamide], for which the IC50 in assay [1] and in assay [2] was 100 to 1000 nM in each case.

With `CCOc1nc2n(CC(=O)Nc3ccc(C(F)(F)F)cc3Cl)c(CC)c(N3CCN(C(=O)CNC(=O)c4ccccc4F)CC3)c(=O)n2n1` [Example 239, N-(2-(4-(4-(2-((2-Chloro-4-(trifluoromethyl)phenyl)amino)-2-oxoethyl)-2-ethoxy-5-ethyl-7-oxo-4,7-dihydro-[1,2,4]triazolo[1,5-a]pyrimidin-6-yl)piperazin-1-yl)-2-oxoethyl)-2-fluorobenzamide], the IC50 in assay [1] and in assay [2] was 100 to 1000 nM throughout.

`CCc1c(N2CCN(C(=O)CNC(=O)c3ccccc3F)CC2)c(=O)n2nc(SC)nc2n1CC(=O)Nc1ccc(C(F)(F)F)cc1Cl` [Example 241, N-(2-(4-(4-(2-((2-Chloro-4-(trifluoromethyl)phenyl)amino)-2-oxoethyl)-5-ethyl-2-(methylthio)-7-oxo-4,7-dihydro-[1,2,4]triazolo[1,5-a]pyrimidin-6-yl)piperazin-1-yl)-2-oxoethyl)-2-fluorobenzamide]: the IC50 in assay [1] and in assay [2] was 100 to 1000 nM throughout.

With `CCc1c(N2CCN(C(=O)CNC(=O)c3ccccc3F)CC2)c(=O)n2nc(N3CC(F)(F)C3)nc2n1CC(=O)Nc1ccc(C(F)(F)F)cc1Cl` [Example 244, N-(2-(4-(4-(2-((2-Chloro-4-(trifluoromethyl)phenyl)amino)-2-oxoethyl)-2-(3,3-difluoroazetidin-1-yl)-5-ethyl-7-oxo-4,7-dihydro-[1,2,4]triazolo[1,5-a]pyrimidin-6-yl)piperazin-1-yl)-2-oxoethyl)-2-fluorobenzamide], the IC50 is less than 100 nM in assay [1] and 100 to 1000 nM in assay [2].

With `CCc1c(N2CCN(C(=O)CNC(=O)c3ccccc3F)CC2)c(=O)n2nc(N3Cc4ccncc4C3)nc2n1CC(=O)Nc1ccc(C(F)(F)F)cc1Cl` [Example 246, N-(2-(4-(4-(2-((2-Chloro-4-(trifluoromethyl)phenyl)amino)-2-oxoethyl)-2-(1,3-dihydro-2H-pyrrolo[3,4-c]pyridin-2-yl)-5-ethyl-7-oxo-4,7-dihydro-[1,2,4]triazolo[1,5-a]pyrimidin-6-yl)piperazin-1-yl)-2-oxoethyl)-2-fluorobenzamide], the IC50 was 100 to 1000 nM in assay [1] and less than 100 nM in assay [2].

For `CCc1c(N2CCN(C(=O)CNC(=O)c3nccs3)CC2)c(=O)n2nc(N3CCOCC3)nc2n1CC(=O)Nc1ccc(C(F)(F)F)cc1Cl` [Example 248, N-(2-(4-(4-(2-((2-Chloro-4-(trifluoromethyl)phenyl)amino)-2-oxoethyl)-5-ethyl-2-morpholino-7-oxo-4,7-dihydro-[1,2,4]triazolo[1,5-a]pyrimidin-6-yl)piperazin-1-yl)-2-oxoethyl)thiazole-2-carboxamide], the IC50 in assay [1] and in assay [2] was less than 100 nM throughout.

For the compound `CCc1c(N2CCN(C(=O)CNC(=O)c3ncco3)CC2)c(=O)n2nc(N3CCOCC3)nc2n1CC(=O)Nc1ccc(C(F)(F)F)cc1Cl` [Example 249, N-(2-(4-(4-(2-((2-Chloro-4-(trifluoromethyl)phenyl)amino)-2-oxoethyl)-5-ethyl-2-morpholino-7-oxo-4,7-dihydro-[1,2,4]triazolo[1,5-a]pyrimidin-6-yl)piperazin-1-yl)-2-oxoethyl)oxazole-2-carboxamide], the IC50 in assay [1] and in assay [2] was less than 100 nM in each case.

Turning to `CCc1c(N2CCN(C(=O)CNC(=O)c3cc(NC)ccc3F)CC2)c(=O)n2nc(N3CCOCC3)nc2n1CC(=O)Nc1ccc(C(F)(F)F)cc1Cl` [Example 250], the IC50 in assay [1] and in assay [2] was less than 100 nM throughout.

Consider `CCc1c(N2CCN(C(=O)CNC(=O)c3ccc(F)c(NC)c3)CC2)c(=O)n2nc(N3CCOCC3)nc2n1CC(=O)Nc1ccc(C(F)(F)F)cc1Cl` [Example 251, N-(2-(4-(4-(2-((2-Chloro-4-(trifluoromethyl)phenyl)amino)-2-oxoethyl)-5-ethyl-2-morpholino-7-oxo-4,7-dihydro-[1,2,4]triazolo[1,5-a]pyrimidin-6-yl)piperazin-1-yl)-2-oxoethyl)-4-fluoro-3-(methylamino)benzamide], for which the IC50 in assay [1] and in assay [2] was less than 100 nM throughout.

For `CCc1c(N2CCN(C(=O)CNC(=O)c3cccc(O)c3F)CC2)c(=O)n2nc(N3CCOCC3)nc2n1CC(=O)Nc1ccc(C(F)(F)F)cc1F` [Example 252, N-(2-(4-(5-Ethyl-4-(2-((2-fluoro-4-(trifluoromethyl)phenyl)amino)-2-oxoethyl)-2-morpholino-7-oxo-4,7-dihydro-[1,2,4]triazolo[1,5-a]pyrimidin-6-yl)piperazin-1-yl)-2-oxoethyl)-2-fluoro-3-hydroxybenzamide], the IC50 in assay [1] and in assay [2] was less than 100 nM throughout.

On to `CCc1c(N2CCN(C(=O)CNC(=O)c3cc(F)cc(NC)c3)CC2)c(=O)n2nc(N3CCOCC3)nc2n1CC(=O)Nc1ccc(C(F)(F)F)cc1F` [Example 253, N-(2-(4-(5-Ethyl-4-(2-((2-fluoro-4-(trifluoromethyl)phenyl)amino)-2-oxoethyl)-2-morpholino-7-oxo-4,7-dihydro-[1,2,4]triazolo[1,5-a]pyrimidin-6-yl)piperazin-1-yl)-2-oxoethyl)-3-fluoro-5-(methylamino)benzamide], for which the IC50 in assay [1] and in assay [2] was less than 100 nM each time.

As for `CCc1c(N2CCN(C(=O)CNC(=O)c3ccccc3F)CC2)c(=O)n2nc(N3CCOCC3)nc2n1CC(=O)Nc1ccc(C(F)(F)F)cc1F` [Example 254, N-(2-(4-(5-Ethyl-4-(2-((2-fluoro-4-(trifluoromethyl)phenyl)amino)-2-oxoethyl)-2-morpholino-7-oxo-4,7-dihydro-[1,2,4]triazolo[1,5-a]pyrimidin-6-yl)piperazin-1-yl)-2-oxoethyl)-2-fluorobenzamide], the IC50 in assay [1] and in assay [2] was less than 100 nM throughout.

Turning to `CCc1c(N2CCN(C(=O)CNC(=O)c3cccc(F)c3N)CC2)c(=O)n2nc(N3CCOCC3)nc2n1CC(=O)Nc1ccc(C(F)(F)F)cc1F` [Example 255, 2-Amino-N-(2-(4-(5-Ethyl-4-(2-((2-fluoro-4-(trifluoromethyl)phenyl)amino)-2-oxoethyl)-2-morpholino-7-oxo-4,7-dihydro-[1,2,4]triazolo[1,5-a]pyrimidin-6-yl)piperazin-1-yl)-2-oxoethyl)-3-fluorobenzamide], the IC50 in assay [1] and in assay [2] was less than 100 nM each time.

Regarding `CCc1c(N2CCN(C(=O)CNC(=O)c3ccc(F)c(NC)c3)CC2)c(=O)n2nc(N3CCOCC3)nc2n1CC(=O)Nc1ccc(C(F)(F)F)cc1F` [Example 256, N-(2-(4-(5-Ethyl-4-(2-((2-fluoro-4-(trifluoromethyl)phenyl)amino)-2-oxoethyl)-2-morpholino-7-oxo-4,7-dihydro-[1,2,4]triazolo[1,5-a]pyrimidin-6-yl)piperazin-1-yl)-2-oxoethyl)-4-fluoro-3-(methylamino)benzamide], the IC50 in assay [1] and in assay [2] was less than 100 nM throughout.

In the case of `CCc1c(N2CCN(C(=O)CNC(=O)c3ncco3)CC2)c(=O)n2nc(N3CCCOCC3)nc2n1CC(=O)Nc1ccc(C(F)(F)F)cc1F` [Example 257, N-(2-(4-(5-Ethyl-4-(2-((2-fluoro-4-(trifluoromethyl)phenyl)amino)-2-oxoethyl)-2-(1,4-oxazepan-4-yl)-7-oxo-4,7-dihydro-[1,2,4]triazolo[1,5-a]pyrimidin-6-yl)piperazin-1-yl)-2-oxoethyl)oxazole-2-carboxamide], the IC50 in assay [1] and in assay [2] was 100 to 1000 nM in each case.

For the compound `CCc1c(N2CCN(C(=O)C(=O)Nc3nccs3)CC2)c(=O)n2nc(N3CCOCC3)nc2n1CC(=O)Nc1ccc(C(F)(F)F)cc1Cl` [Example 258, 2-(4-(4-(2-((2-Chloro-4-(trifluoromethyl)phenyl)amino)-2-oxoethyl)-5-ethyl-2-morpholino-7-oxo-4,7-dihydro-[1,2,4]triazolo[1,5-a]pyrimidin-6-yl)piperazin-1-yl)-2-oxo-N-(thiazol-2-yl)acetamide], the IC50 in assay [1] and in assay [2] was less than 100 nM in each case.

`CCc1c(N2CCN(C(=O)C(=O)Nc3nccs3)CC2)c(=O)n2nc(N3Cc4ccncc4C3)nc2n1CC(=O)Nc1ccc(C(F)(F)F)cc1Cl` [Example 259, 2-(4-(4-(2-((2-Chloro-4-(trifluoromethyl)phenyl)amino)-2-oxoethyl)-2-(1,3-dihydro-2H-pyrrolo[3,4-c]pyridin-2-yl)-5-ethyl-7-oxo-4,7-dihydro-[1,2,4]triazolo[1,5-a]pyrimidin-6-yl)piperazin-1-yl)-2-oxo-N-(thiazol-2-yl)acetamide]: the results for the IC50 in assay [1] and in assay [2] were 100 to 1000 nM and less than 100 nM, respectively.
